For the test, the target named is T1, recombinant autotaxin (Homo sapiens, UniProt Q13822).
T1 construct: made in house; host or cells: Hi5 insect cells (baculovirus)
As to the kind of experiment: Autotaxin test (enzyme test), Amplex Red fluorescence with LPC substrate. The note with it: autotaxin inhibition (enzyme test); for remaining activity at 10 µM: 10 μM compound, read-out: % Control at 10 μM. Type of test: biochemical. The protocol:
Autotaxin Inhibition (Enzyme Test)
Autotaxin Test (Enzyme Test)
The autotaxin activity is measured indirectly using Amplex Red reagent. Amplex Red is measured here as fluorogenic indicator for the H2O2 formed. In detail, autotaxin converts the substrate lysophosphatidylcholine (LPC) into phosphocholine and lysophosphatidylic acid (LPA). After this reaction, the phosphocholine is reacted with alkaline phosphatase to give inorganic phosphate and choline. In the next step, choline is oxidised by choline oxidase to give betaine, with formation of H2O2. H2O2 reacts with Amplex Red reagent in the presence of peroxidase (horseradish peroxidase) in a 1:1 stoichiometry and forms the highly fluorescent resorufin. The fluorescence is measured in a reaction-dependent kinetic mode in order that fluorescent signals from possible other fluorescent substances which are not involved in the reaction can be corrected out.
3 μl of a standard solution or of the test substances (substances with the name A(n)) in individual concentrations dissolved in 20 mM Hepes pH 7.2 with a maximum of 11% of DMSO are pre-incubated together with 20 μl (19 ng) of highly purified recombinant autotaxin in test buffer in a black microtitre plate provided with 384 wells at 22° C. for 30 min. The reaction is then initiated by addition of 10 μl of L-α-lysophosphatidylcholine (LPC), where the final concentration of LPC is 75 μM. The mixture is incubated at 37° C. for 90 min. After the incubation, Amplex Red reagent, peroxidase (horseradish peroxidase) and choline oxidase is added, and the fluorescence is immediately measured at 612 nm with excitation of 485 nm in a “Tecan Ultra multimode” reader. The activity of autotaxin is calculated indirectly via detection of the H2O2 formed.
• Microtitre plate: PS microplate, 384 wells, small volume, black Corning, Cat#3677 • Protein: recombinant autotaxin (Baculovirale Hi5 Expression) • Substrate: L-α-lysophosphatidylcholine (chicken egg)); Avanti Polar Lipids #830071 P • Standard: C14 LPA, Avanti Polar Lipids, Cat#857120P • Detection reagent: Amplex Red reagent; Invitrogen #A12222; 5 mg dissolved in 1.923 ml of DMSO peroxidase type VI-A (horseradish) from Sigma #P6782; 5 mg dissolved in 7.45 ml of test buffer, choline oxidase; Sigma # C5896; 50 U dissolved in 2.47 ml of test buffer • Detection reagent mix: 1:50 dilution of detection reagent in test buffer • Test buffer: 10 mM Tris HCl, Merck, Cat #1.08219, pH 8, 1 mM; CaCl2×2 H2O, Merck #1.02382

Consider 21 molecules from patent US20120115852A1, “HETEROCYCLIC COMPOUNDS AS AUTOTAXIN INHIBITORS” (Merck Patent Gesellschaft Mit Beschrankter Haftung, priority 2009, published 2012).

One may read the IC50 as the concentration that gives 50% inhibition. `Cc1nc(C(=O)N2CCN3C(=O)c4cc(-c5ccc(Cl)cc5)ccc4NC(=O)C3C2)c(N)s1` (stereo not shown) [Compound A37, 2-(5-Amino-2-methylthiazole-4-carbonyl)-7-(4-chlorophenyl)-1,3,4,11a-tetrahydro-2H,10H-2,4a,10-triazadibenzo[a,d]cycloheptene-5,11-dione]: the remaining activity at 10 µM turned out to be 66% and the IC50 was over 1000 nM. `O=C1Nc2ccc(-c3ccc(Cl)cc3)cc2C(=O)N2CCN(C(=O)C(O)c3ccc(Cl)cc3)CC12` (stereo not shown) [Compound A38, 7-(4-Chlorophenyl)-2-[2-(4-chlorophenyl)-2-hydroxyacetyl]-1,3,4,11a-tetrahydro-2H,10H-2,4a,10-triazadibenzo[a,d]cycloheptene-5,11-dione]: the remaining activity at 10 µM was 35% and the IC50 is over 1000 nM. In the same order, the values of `CC(O)(C(=O)N1CCN2C(=O)c3cc(-c4ccc(Cl)cc4)ccc3NC(=O)C2C1)c1ccccc1` (stereo not shown) [Compound A39, 7-(4-Chlorophenyl)-2-(2-hydroxy-2-phenylpropionyl)-1,3,4,11a-tetrahydro-2H,10H-2,4a,10-triazadibenzo[a.d]cycloheptene-5,11-dione] are 22% and over 1000 nM. Consider `O=C1Nc2ccc(-c3ccc(Cl)cc3)cc2C(=O)N2CCN(C(=O)C(O)c3ccccc3Cl)CC12` (stereo not shown) [Compound A40, 7-(4-Chlorophenyl)-2-[2-(2-chlorophenyl)-2-hydroxyacetyl]-1,3,4,11a-tetrahydro-2H,10H-2,4a,10-triazadibenzo[a,d]cycloheptene-5,11-dione], for which the remaining activity at 10 µM came out at 48% and the IC50 was over 1000 nM. As for `O=C1Nc2ccc(-c3ccc(Cl)cc3)cc2C(=O)N2CCN(C(=O)C(O)c3cccc(Cl)c3)CC12` (stereo not shown) [Compound A41, 7-(4-Chlorophenyl)-2-[2-(3-chlorophenyl)-2-hydroxyacetyl]-1,3,4,11a-tetrahydro-2H,10H-2,4a,10-triazadibenzo[a,d]cycloheptene-5,11-dione], the remaining activity at 10 µM is 68% and the IC50 was over 1000 nM. For `COC(C(=O)N1CCN2C(=O)c3cc(-c4ccc(Cl)cc4)ccc3NC(=O)C2C1)c1ccccc1` (stereo not shown) [Compound A42, 7-(4-Chlorophenyl)-2-(2-methoxy-2-phenylacetyl)-1,3,4,11a-tetrahydro-2H,10H-2,4a,10-triaza-dibenzo[a,d]cycloheptene-5,11-dione] the same measures were 12% and over 1000 nM. In the same order, the values of `O=C1Nc2ccc(-c3ccc(Cl)cc3)cc2C(=O)N2CCN(C(=O)[C@H](O)c3ccccc3)CC12` (stereo partly drawn) [Compound A43, 7-(4-Chlorophenyl)-2-((R)-2-hydroxy-2-phenylacetyl)-1,3,4,11a-tetrahydro-2H,10H-2,4a,10-triazadibenzo[a,d]cycloheptene-5,11-dione] are 31% and over 1000 nM.

Take `Cc1cccc(C(O)C(=O)N2CCN3C(=O)c4cc(-c5ccc(Cl)cc5)ccc4NC(=O)C3C2)c1` (stereo not shown) [Compound A44, 7-(4-Chlorophenyl)-2-(2-hydroxy-2-m-tolylacetyl)-1,3,4,11a-tetrahydro-2H,10H-2,4a,10-triaza-dibenzo[a,d]cycloheptene-5,11-dione]: the remaining activity at 10 µM came out at 48% and the IC50 is over 1000 nM. As for `O=C1Nc2ccc(-c3ccc(Cl)cc3)cc2C(=O)N2CCN(C(=O)C(O)c3cccc(C(F)(F)F)c3)CC12` (stereo not shown) [Compound A45, 7-(4-Chlorophenyl)-2-[2-hydroxy-2-(3-trifluoro-methylphenyl)acetyl]-1,3,4,11a-tetrahydro-2H,10H-2,4a,10-triazadibenzo[a,d]cycloheptene-5,11-dione], the remaining activity at 10 µM came to 61% and the IC50 was over 1000 nM.

For the molecule `CC(C)(C(=O)N1CCN2C(=O)c3cc(-c4ccc(Cl)cc4)ccc3NC(=O)C2C1)c1ccccc1` (stereo not shown) [Compound A46, 7-(4-Chlorophenyl)-2-(2-methyl-2-phenylpropionyl)-1,3,4,11a-tetrahydro-2H,10H-2,4a,10-triaza-dibenzo[a,d]cycloheptene-5,11-dione], the IC50 was over 1000 nM. In the case of `O=C1Nc2ccc(-c3ccc(Cl)cc3)cc2C(=O)N2CCN(C(=O)C3(c4ccc(Cl)cc4)CC3)CC12` (stereo not shown) [Compound A47, 7-(4-Chlorophenyl)-2-[1-(4-chlorophenyl)-cyclopropanecarbonyl]-1,3,4,11a-tetrahydro-2H,10H-2,4a,10-triazadibenzo[a,d]cycloheptene-5,11-dione], the IC50 was over 1000 nM. For the molecule `O=C1Nc2ccc(-c3ccc(Cl)cc3)cc2C(=O)N2CCN(C(=O)Nc3ccccc3)CC12` (stereo not shown) [Compound A48, N-Phenyl-7-(4-chlorophenyl)-5,11-dioxo-3,4,5,10,11,11a-hexahydro-1H-2,4a,10-triaza-dibenzo[a,d]cycloheptene-2-carboxamide], the remaining activity at 10 µM was determined as 20% and the IC50 is over 1000 nM. For the molecule `O=C1Nc2ccc(-c3ccc(Cl)cc3)cc2C(=O)N2CCN(C(=O)C3(c4ccccc4)CC3)CC12` (stereo not shown) [Compound A49, 7-(4-Chlorophenyl)-2-(1-phenylcyclopropane-carbonyl)-1,3,4,11a-tetrahydro-2H,10H-2,4a,10-triazadibenzo[a,d]cycloheptene-5,11-dione], the IC50 was over 1000 nM. With `Nc1nc(C(=O)N2CCN3C(=O)c4cc(-c5ccc(Cl)cc5)ccc4NC(=O)C3C2)cs1` (stereo not shown) [Compound A50, 2-(2-Aminothiazole-4-carbonyl)-7-(4-chlorophenyl)-1,3,4,11a-tetrahydro-2H,10H-2,4a,10-triaza-dibenzo[a,d]cycloheptene-5,11-dione], the remaining activity at 10 µM amounted to 80%. Turning to `O=C1Nc2ccc(-c3ccc(Cl)cc3)cc2C(=O)N2CCN(C(=O)c3ccccn3)CC12` (stereo not shown) [Compound A51, 7-(4-Chlorophenyl)-2-(pyridine-2-carbonyl)-1,3,4,11a-tetrahydro-2H,10H-2,4a,10-triaza-dibenzo[a,d]cycloheptene-5,11-dione], the remaining activity at 10 µM is 37% and the IC50 was over 1000 nM. With `CC(C)(C)[C@@H](N)C(=O)N1CCN2C(=O)c3cc(-c4ccc(Cl)cc4)ccc3NC(=O)C2C1` (stereo partly drawn) [Compound A53, 2-((R)-2-Amino-3,3-dimethylbutyryl)-7-(4-chloro-phenyl)-1,3,4,11a-tetrahydro-2H,10H-2,4a,10-triazadibenzo[a,d]cycloheptene-5,11-dione], the IC50 is over 1000 nM. Take `CC(C)(C)[C@H](O)C(=O)N1CCN2C(=O)c3cc(-c4ccc(Cl)cc4)ccc3NC(=O)[C@@H]2C1` [Compound A54, (S)-7-(4-Chlorophenyl)-2-((S)-2-hydroxy-3,3-di-methyl-1-oxobutyl)-1,3,4,11a-tetrahydro-2H,10H-2,4a,10-triazadibenzo[a,d]cycloheptene-5,11-dione]: the remaining activity at 10 µM is 84%.

`CC(C)(C)[C@@H](NC=O)C(=O)N1CCN2C(=O)c3cc(-c4ccc(Cl)cc4)ccc3NC(=O)C2C1` (stereo partly drawn) [Compound A55, N-{(R)-1-[7-(4-Chlorophenyl)-5,11-dioxo-3,4,5,10,11,11a-hexahydro-1H-2,4a,10-triaza-dibenzo[a,d]cycloheptene-2-carbonyl]-2,2-dimethylpropyl}formamide]: the remaining activity at 10 µM stood at 71%. As to `CC(C)(C)[C@H](O)C(=O)N1CCN2C(=O)c3cc(-c4ccc(Cl)cc4)ccc3NC(=O)[C@H]2C1` [Compound A56, (R)-7-(4-Chlorophenyl)-2-((S)-2-hydroxy-3,3-di-methyl-1-oxobutyl)-1,3,4,11a-tetrahydro-2H,10H-2,4a,10-triazadibenzo[a,d]cycloheptene-5,11-dione], the IC50 is 100 to 1000 nM. Regarding `CC(C)(C(=O)N1CCN2C(=O)c3cc(-c4ccc(Cl)cc4F)ccc3NC(=O)C2C1)c1ccccc1` (stereo not shown) [Compound A58, 7-(4-Chloro-2-fluorophenyl)-2-(2-methyl-2-phenyl-propionyl)-1,3,4,11a-tetrahydro-2H,10H-2,4a,10-triazadibenzo[a,d]cycloheptene-5,11-dione], the remaining activity at 10 µM was -27% and the IC50 was over 1000 nM. In the same order, the values of `CC(C)[C@H](N)C(=O)N1CCN2C(=O)c3cc(-c4ccc(Cl)cc4F)ccc3NC(=O)C2C1` (stereo partly drawn) [Compound A59, 2-((S)-2-Amino-3-methylbutyryl)-7-(4-chloro-2-fluorophenyl)-1,3,4,11a-tetrahydro-2H,10H-2,4a,10-triazadibenzo[a,d]cycloheptene-5,11-dione] are -9% and over 1000 nM.
